In patent US11802108B2, “Compounds for the modulation of cyclophilins function” (The University Court of The University of Edinburgh, priority 2018, dated 2023):
Where a name gives a salt, the structure may show the parent alone.

Columns and labels:
CypA [1] = target: T1, CypA (Homo sapiens (Human), UniProt P62937); assay: Isothermal titration calorimetry (ITC) binding to CypA; conditions: 25° C.
Experimental: All ITC experiments for the ester series compounds were carried out at 25° C. on a MicroCal Auto iTC200 (GE Healthcare) instrument. The buffer used in the titrations of the compounds belonging to the ester series was 50 mM phosphate buffer, pH 6.5 and the concentration of DMSO was 2% v/v for all the compounds, unless otherwise stated in Table 51. Final compound solutions were heated to 65° C. and/or sonicated prior to the experiment. Each experiment consisted of an initial injection of 0.4 μL followed by nineteen 2 μL injections and in most of cases for these compounds, the “continue injections” protocol was used leaving the cell intact and performing a second series of titrations using the above protocol to achieve saturation. Control experiments were performed, where each compound was titrated into buffer and when small amount of heat was detected due to heat of dilution, it was subtracted when processing the data using a linear fit method. In all cases the first injection was omitted from the data processing. All data were analysed using the MicroCal PEAQ-ITC Analysis software.
The buffer used for these titrations was: PBS, 0.05% v/v P20 surfactant, 50 μM EDTA in presence of 2% v/v EtOH and the pH was set to 7.4.

CypA [2] = target: T1, CypA; assay: X-ray co-crystal structure with CypA; on CypA X-ray co-crystal: key: Y: observed in cocrystal; N: not observed in cocrystal; format: binding; conditions: for CypA X-ray co-crystal: apo CypA crystals soaked with 5 mM ligand; for binding mode in co-crystal structure of CypA: FIG. 1
Experimental: Purified and his-tag-cleaved CypA was buffer-exchanged into PBS and concentrated to ˜29 mg ml^−1. For crystallisation 1 μL of protein was mixed with an equal volume of the well solution, consisting of 100 mM Tris-HCl pH8.0 and 20-22% v/v PEG 8000, and crystal formation came about after equilibration overnight in 6° C. by vapour diffusion using the hanging drop method over 1 mL of the same well solution. Apo CypA crystals were soaked overnight into different ligand solution consisting of 100 mM Tris-HCl pH 8.0, 35% w/v PEG 8000, 5% v/v Glycerol, 5% v/v DMSO and 5 mM ligand, before flash frozen into liquid nitrogen. X-ray data were collected at the Diamond synchrotron-radiation facility in Oxford-shire, England at 100K. Structures were solved by molecular replacement using DIMPLE from the CCP4i suite. Modelled structures were visualised and manually adjusted as needed using Coot10 and further refined using REFMAC5 from CCP4i.
FIG. 1A summarises the mode of binding of certain prior-art urea small molecule Cyp inhibitors.

CypB = CypB (Homo sapiens (Human), UniProt P23284); assay: Surface plasmon resonance (SPR) binding to His-CypB; conditions: 25° C., triplicate
Sequence of CypB (P23284 34-216): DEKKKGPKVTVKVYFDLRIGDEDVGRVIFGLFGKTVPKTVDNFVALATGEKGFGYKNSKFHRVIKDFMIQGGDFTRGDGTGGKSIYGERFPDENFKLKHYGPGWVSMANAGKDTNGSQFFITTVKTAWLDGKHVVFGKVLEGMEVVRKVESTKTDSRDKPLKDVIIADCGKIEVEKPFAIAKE
Experimental: (§1) Single cycle kinetic titration binding experiments were performed using SPR in triplicate at 25° C. […] The sensor surface was regenerated between experiments by dissociating any formed complex in running buffer for at least 1,200 seconds.
(§2) Kinetic titration binding experiments were performed in triplicate at 25° C. […] The sensor surface was regenerated between experiments by dissociating any formed complex in running buffer for at least a further 600 seconds.

CypA [3] = target: T1, CypA; assay: Surface plasmon resonance (SPR) binding to His-CypA; conditions: 25° C., triplicate
Experimental: (§3) SPR measurements were performed on a BIAcore T200 instrument (GE Healthcare). Ni^2+-nitrilotriacetic acid (NTA) sensor chips, 1-ethyl-3-(3-[…]) carbodiimide hydrochloride (EDC) and Nhydroxysuccinimide (NHS) were purchased from GE Healthcare.
(§4) Pure His-cyclophilins were immobilized and covalently stabilized on the NTA sensor chip according to the protocol described in Thermo-kinetic analysis space expansion for cyclophilin-ligand interactions—identification of a new nonpeptide inhibitor using Biacore T200.
as §1, §2

CypD = CypD (Homo sapiens (Human), UniProt P30405); assay: Surface plasmon resonance (SPR) binding to His-CypD; conditions: 25° C., triplicate
Sequence of CypD (P30405 30-207): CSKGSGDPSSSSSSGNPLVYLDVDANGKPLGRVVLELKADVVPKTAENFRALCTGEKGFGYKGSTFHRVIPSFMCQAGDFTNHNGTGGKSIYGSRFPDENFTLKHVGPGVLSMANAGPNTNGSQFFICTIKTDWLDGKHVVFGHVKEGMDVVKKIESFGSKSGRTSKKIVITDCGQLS
Experimental: as §3, §4, §1, §2

IMR-90 cells = assay: Cytotoxicity (cell death, Draq7) in IMR-90 cells; format: cell-based
Experimental: (§5) The latter medium with 2000 U/mL IL-2 was used for NK92 cell killing assays.
(§6) To determine the direct effect of the compounds on cell proliferation, cells were seeded at a density of 500 cells per well in cell culture medium in 384-well cell culture plates and allowed to adhere overnight (about 16 hours), incubated in a humidified atmosphere with 5% CO2. Subsequently, cell culture medium was refreshed, supplemented with Draq 7 (3 μM final concentration) and test compound at the indicated concentrations with three wells being treated for each condition tested. Cells were then returned to the cell culture incubator and imaged with a 10× objective every 3 hours for 120 hours using an IncuCyte ZOOM microscope from Essen Bioscience.
(§7) Using the IncuCyte ZOOM software, custom image analysis procedures were developed and applied for each cell line to determine cell confluency, cell number and number of dead cells over the time course of the experiment.
(§8) Statistical analyses in cell viability assays to compare the effect of compound treatment to treatment with vehicle were performed using GraphPad Prism 6 (2-way ANOVA with Bonferroni correction post hoc).

MDA-MB-231 cells [4] = assay: Cytotoxicity (cell death, Draq7) in MDA-MB-231 cells; format: cell-based
Experimental: as §5, §6, §7, §8

MDA-MB-231 cells [5] = assay: Growth inhibition (GI50) of MDA-MB-231 cells, IncuCyte imaging; format: cell-based; conditions: MDA-MB-231, 120 hours imaging
Experimental: as §5, §6, §7, §8

NK92 cells = assay: Proliferation of NK92 cells; format: cell-based
Experimental: as §5
(§9) NK92 cells were then added at a density of 1000 cells per well and 10 μM test compound was added. Cells were imaged with a 10× objective every 3 hours for 120 hours using an IncuCyte ZOOM microscope from Essen Bioscience.
(§10) Apoptotic fraction of the population (number of nuclei with co-localized red and green fluorescence divided by total number of red nuclei in the population) and fold increase in number of red nuclei were determined at various time points.

[6] = test system: MDA-MB-231 cells in presence of NK92 cells; assay: NK92 immune cell killing of MDA-MB-231 cancer cells; format: cell-based; conditions: with NK92 cells
Experimental: as §5, §9, §10

T1 sequence (P62937 whole entry): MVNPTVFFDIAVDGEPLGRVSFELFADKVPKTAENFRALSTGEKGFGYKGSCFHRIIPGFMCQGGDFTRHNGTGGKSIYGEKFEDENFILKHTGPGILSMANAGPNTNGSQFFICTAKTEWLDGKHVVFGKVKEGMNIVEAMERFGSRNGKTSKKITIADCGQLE

| Compound | Kd (CypA [1]) [µM] | CypA X-ray co-crystal (CypA [2]) | other results |
| --- | --- | --- | --- |
| CCN(Cc1ccc(N)cc1)C(=O)NCC(=O)N1CCCC1c1ccccc1 (stereo not shown) [Compound 9, 1-[(4-aminophenyl)methyl]-3-{2-[2-(phenyl)pyrrolidin-1-yl]-2-oxoethyl}-1-ethylurea] | 35 ± 5 | Y |  |
| CCCN(Cc1ccc(N)cc1)C(=O)NCC(=O)OCC [Compound 16, Ethyl 2-({[(4-aminophenyl)methyl](propyl)carbamoyl}amino)acetate] | 266 ± 3 | Y |  |
| CCOC(=O)[C@H](CCSC)NC(=O)N(CC)Cc1ccc(N)cc1 [Compound 15, Ethyl (2S)-2-({[(4-aminophenyl)methyl](ethyl)carbamoyl}amino)-4-(methylsulfanyl)butanoate hydrochloride] | 35 ± 5 | Y |  |
| CCN(Cc1ccc(N)cc1)C(=O)NCC(=O)N1CCCC1c1ccccc1Br.Cl (stereo not shown) [Compound 10, 1-[(4-aminophenyl)methyl]-3-{2-[2-(2-bromophenyl)pyrrolidin-1-yl]-2-oxoethyl}-1-ethylurea hydrochloride] | ~25 | N |  |
| CCOC(=O)CNC(=O)N(Cc1ccc(N)cc1)Cc1nnn(C)n1.Cl [Compound 19, Ethyl 2-({[(4-aminophenyl)methyl][(2-methyl-2H-1,2,3,4-tetrazol-5-yl)methyl]carbamoyl}amino)acetate hydrochloride] | 184 ± 13 | Y | binding mode in co-crystal structure of CypA (CypA [2]): type-II binding mode |
| CCOC(=O)Cn1cc(CN(Cc2ccc(N)cc2)C(=O)NCC(=O)N2CCCC2c2ccccc2Br)nn1.Cl (stereo not shown) [Compound 5, Ethyl 2-[4-({[(4-aminophenyl)methyl]({2-[2-(2-bromophenyl)pyrrolidin-1-yl]-2-oxoethyl}carbamoyl)amino}methyl)-1H-1,2,3-triazol-1-yl]acetate hydrochloride] | ~3 | N | Kd (CypB): 1.9 ± 0.9 µM; Kd (CypA [3]): 4.3 ± 1 µM; Kd (CypD): 1 ± 0.4 µM |
| CCOC(=O)CCn1cc(CN(Cc2ccc(N)cc2)C(=O)NCC(=O)N2CCCC2c2ccccc2Br)nn1.Cl (stereo not shown) [Compound 6, Ethyl 3-[4-({[(4-aminophenyl)methyl]({2-[2-(2-bromophenyl)pyrrolidin-1-yl]-2-oxoethyl}carbamoyl)amino}methyl)-1H-1,2,3-triazol-1-yl]propanoatehydrochloride] | 0.3 ± 0.08 | N |  |
| CCOC(=O)CNC(=O)N(Cc1ccc(N)cc1)Cc1cn(C)nn1.Cl [Compound 18, Ethyl 2-({[(4-aminophenyl)methyl][(1-methyl-1H-1,2,3-triazol-4-yl)methyl]carbamoyl}amino)acetate hydrochloride] | 135 ± 6 | Y |  |
| C#CCN(Cc1ccc(N)cc1)C(=O)NCC(=O)N1CCCC1c1ccccc1Br.Cl (stereo not shown) [Compound 1, 1-[(4-aminophenyl)methyl]-3-{2-[2-(2-bromophenyl)pyrrolidin-1-yl]-2-oxoethyl}-1-(prop-2-yn-1-yl)urea hydrochloride] | 2 ± 1 | Y | Kd (CypB): 1.4 ± 0.4 µM; Kd (CypA [3]): 3.2 ± 1.3 µM; Toxicity IMR-90 @10 μM (IMR-90 cells): N; Kd (CypD): 0.2 ± 0.1 µM; Toxicity MDA-MB-231 @10 μM (MDA-MB-231 cells [4]): N; GI50 (MDA-MB-231 cells [5]; Homo sapiens): 5.1 ± 0.9 µM; Fold increase in NK92 cells after 72 h @ 10 μM (NK92 cells): 4.3 ± 0.7; Apoptotic fraction of the MDA-MB-231 population in the presence of NK92 cells after 72 h @ 10 μM [6]: 0.64 ± 0.03; Fold increase MDA-MB-231 cells in presence of NK92 cells after 72 h @ 10 μM [6]: 2.0 ± 0.3 |
| CCOC(=O)CNC(=O)N(CC)Cc1ccc2c(c1)[C@H]1CC(N2)[C@H](O)CO1 (stereo in doubt) [Compound 23, Ethyl 2-{[ethyl({[(1R,9S,10S)-10-hydroxy-12-oxa-8-azatricyclo[7.3.1.0^2,7]trideca-2,4,6-trien-4-yl]methyl})carbamoyl]amino}acetate hydrochloride] | 700 ± 235 | N |  |
| C/C=C/CC(C)C(O)C1C(=O)NC(CC)C(=O)N(C)CC(=O)N(C)C(CC(C)C)C(=O)NC(C(C)C)C(=O)N(C)C(CC(C)C)C(=O)NC(C)C(=O)NC(C)C(=O)N(C)C(CC(C)C)C(=O)N(C)C(CC(C)C)C(=O)N(C)C(C(C)C)C(=O)N1C (stereo not shown) [CsA, Cyclosporin A, reference compound] |  |  | GI50 (MDA-MB-231 cells [5]): 6.2 ± 0.8 µM; Apoptotic fraction of the MDA-MB-231 population in the presence of NK92 cells after 72 h @ 10 μM [6]: 0.38 ± 0.01 |

Further lines, with some results ahead:

| Kd (CypA [1]) [µM] | CypA X-ray co-crystal (CypA [2]) | Compound | other results |
| --- | --- | --- | --- |
| 990 ± 20 | Y | CCOC(=O)CNC(=O)N(CC#N)Cc1ccc(N)cc1.Cl [Compound 13, Ethyl 2-({[(4-aminophenyl)methyl](cyanomethyl)carbamoyl}amino)acetate hydrochloride] |  |
| > 1000 | Y | C#CCN(Cc1ccc(N)cc1)C(=O)NCC(=O)OCC [Compound 22, Ethyl 2-({[(4-aminophenyl)methyl](prop-2-yn-1-yl)carbamoyl}amino)acetate] |  |
| 200 ± 5 | Y | CCOC(=O)CNC(=O)N(CC)Cc1ccc(N)cc1.Cl [Compound 12, Ethyl 2-({[(4-aminophenyl)methyl](ethyl)carbamoyl}amino)acetate hydrochloride] | binding mode in co-crystal structure of CypA (CypA [2]): type-I binding mode |
| ~10 | Y | Cl.Nc1ccc(CN(CC2CC2)C(=O)NCC(=O)N2CCCC2c2ccccc2Br)cc1 (stereo not shown) [Compound 11, 1-[(4-aminophenyl)methyl]-3-{2-[2-(2-bromophenyl)pyrrolidin-1-yl]-2-oxoethyl}-1-(cyclopropylmethyl)urea] |  |
| 139 ± 4 | N | CCOC(=O)CNC(=O)N(Cc1ccc(N)cc1)Cc1nnn[nH]1.Cl [Compound 14, Ethyl 2-({[(4-aminophenyl)methyl][(1H-1,2,3,4-tetrazol-5-yl)methyl]carbamoyl}amino)acetate hydrochloride] |  |
|  | Y | CCOC(=O)CNC(=O)N(Cc1ccc(N)cc1)CC1CC1.Cl [Compound 17, Ethyl 2-({[(4-aminophenyl)methyl](cyclopropylmethyl)carbamoyl}amino)acetate hydrochloride] |  |
| 1.1 ± 0.4 | N | Cl.Cn1cc(CN(Cc2ccc(N)cc2)C(=O)NCC(=O)N2CCCC2c2ccccc2Cl)nn1 (stereo not shown) [Compound 8, 1-[(4-aminophenyl)methyl]-3-{2-[2-(2-chlorophenyl)pyrrolidin-1-yl]-2-oxoethyl}-1-[(1-methyl-1H-1,2,3-triazol-4-yl)methyl]urea hydrochloride] |  |
